Among the data in patent publication US9040663B2, “Melanocortin receptor-specific peptides” (AstraZeneca AB, priority 2009, dated 2015) are Ki, EC50 and Emax values, retold here.

As usually defined, the pKi is the negative decadic logarithm of the Ki, by convention in mol/L. Broadly, the pEC50 is the EC50 on a negative log10 scale, so that one unit is a factor of ten. Lower therefore signals a large EC50.

pEC50, pKi: −log10 of the molar value. Read-outs that look alike come from different tables or passages of the source.

Assay [1] addresses T1, hMC4-R (Homo sapiens (Human), UniProt P32245). The experiment in a line: Competitive inhibition binding assay using [I125]-NDP-α-MSH, hMC4-R. The settings on record: membranes of HEK-293 cells expressing recombinant hMC4-R, read-out: MC4-R Ki.
Assay [2] concerns the target T1, hMC4-R. The experiment in a line: High and low density hMC4-R functional assay (cAMP, HEK293-T-REx-MC4-R cells). Format: cell-based. The conditions noted are these: for Emax: NDP-α-MSH = 100%, read-out: Intrinsic Activity (%).
Another assay deals with MC1-R. Put plainly: Competitive inhibition binding assay using [I125]-NDP-α-MSH, MC1-R. The conditions noted are these: membranes of B-16 mouse melanoma cells (endogenous MC1-R), in some instances HEK-293 hMC1-R. The procedure, abridged:
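Radioligand displacement on membranes from B-16 mouse melanoma cells (endogenous MC1-R) or HEK-293 expressing recombinant hMC1-R, with 0.1 nM [I125]-NDP-α-MSH and increasing peptide concentrations in HEPES pH 7.5 buffer, 60 min at 37° C.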

The mark [3] stands for this setting: 0.1 ng/mL Doxycycline (low density hMC4-R system).
The mark [4] stands for this setting: 10 ng/mL Doxycycline (high density hMC4-R system).

T1 sequence (P32245 whole entry): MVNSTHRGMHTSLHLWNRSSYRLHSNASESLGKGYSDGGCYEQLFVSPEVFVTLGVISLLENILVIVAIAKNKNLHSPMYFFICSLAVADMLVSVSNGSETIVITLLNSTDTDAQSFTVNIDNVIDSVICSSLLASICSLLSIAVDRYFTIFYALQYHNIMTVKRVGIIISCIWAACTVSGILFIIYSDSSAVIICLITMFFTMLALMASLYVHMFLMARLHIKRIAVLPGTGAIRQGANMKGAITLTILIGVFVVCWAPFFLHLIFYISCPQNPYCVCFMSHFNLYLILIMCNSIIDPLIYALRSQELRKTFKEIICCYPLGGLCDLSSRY

For the molecule `CC(=O)N[C@@H](CCCNC(=N)N)C(=O)N[C@H]1CCC(=O)NCCC[C@@H](C(N)=O)NC(=O)[C@H](Cc2c[nH]c3ccccc23)NC(=O)[C@H](CCCNC(=N)N)NC(=O)[C@@H](Cc2ccccc2F)NC(=O)[C@@H]2C[C@@H](O)CN2C1=O` [Example 64, Ac-Arg-cyclo(Glu-Hyp-D-Phe(2-F)-Arg-Trp-Orn)-NH2], the pKi is 8.52 at hMC4-R [1] and 7.28 at MC1-R. The pEC50 is 9.00 at hMC4-R [2] (setting [3]) and 10.10 at hMC4-R [2] (setting [4]). Moreover, the Emax on hMC4-R [2] (setting [3]) is 57%; at hMC4-R [2] (setting [4]), 90%.
In the case of `CC(=O)N[C@@H](CCCNC(=N)N)C(=O)N[C@H]1CCC(=O)NCCC[C@@H](C(N)=O)NC(=O)[C@H](Cc2c[nH]c3ccccc23)NC(=O)[C@H](CCCNC(=N)N)NC(=O)[C@@H](Cc2ccc(F)cc2)NC(=O)[C@H](CO)NC1=O` [Example 65, Ac-Arg-cyclo(Glu-Ser-D-Phe(4-F)-Arg-Trp-Orn)-NH2], the figures for the pKi on hMC4-R [1] and on MC1-R were 8.30 and 7.37, respectively. Moreover, the results for the pEC50 on hMC4-R [2] (setting [3]) and on hMC4-R [2] (setting [4]) were 9.00 and 10.07, respectively. In addition, the Emax was found to be 58% on hMC4-R [2] (setting [3]) and 93% at hMC4-R [2] (setting [4]).
For the molecule `CC(=O)N[C@@H](CCCNC(=N)N)C(=O)N[C@H]1CCC(=O)NCCC[C@@H](C(N)=O)NC(=O)[C@H](Cc2c[nH]c3ccccc23)NC(=O)[C@H](CCCNC(=N)N)NC(=O)[C@@H](Cc2ccccc2F)NC(=O)[C@@H]2CCCN2C1=O` [Example 66, Ac-Arg-cyclo(Glu-Pro-D-Phe(2-F)-Arg-Trp-Orn)-NH2], the pKi at hMC4-R [1] is 8.22; on MC1-R it was 7.02. Besides, the pEC50 at hMC4-R [2] (setting [3]) was 8.30; on hMC4-R [2] (setting [4]) it was 9.58. Besides, the values for the Emax at hMC4-R [2] (setting [3]) and at hMC4-R [2] (setting [4]) were 32% and 88%, respectively.
Consider `CC(=O)N[C@@H](CCCNC(=N)N)C(=O)N[C@H]1CCC(=O)NCCC[C@@H](C(N)=O)NC(=O)[C@H](Cc2c[nH]c3ccccc23)NC(=O)[C@H](CCCNC(=N)N)NC(=O)[C@@H](Cc2ccc(F)cc2)NC(=O)[C@H](CCS(C)(=O)=O)NC1=O` [Example 68, Ac-Arg-cyclo(Glu-Met(O2)-D-Phe(4-F)-Arg-Trp-Orn)-NH2], for which the pKi on hMC4-R [1] is 8.70; on MC1-R it was 7.48. For the same molecule, the results for the pEC50 on hMC4-R [2] (setting [3]) and at hMC4-R [2] (setting [4]) were 9.07 and 10.12, respectively. Moreover, the Emax at hMC4-R [2] (setting [3]) is 55%; at hMC4-R [2] (setting [4]), 91%.
As to `CC(=O)N[C@@H](CCCNC(=N)N)C(=O)N[C@H]1CCC(=O)NCCC[C@@H](C(N)=O)NC(=O)[C@H](Cc2c[nH]c3ccccc23)NC(=O)[C@H](CCCNC(=N)N)NC(=O)[C@@H](Cc2ccc(F)cc2)NC(=O)[C@H](CC(N)=O)NC1=O` [Example 69, Ac-Arg-cyclo(Glu-Asn-D-Phe(4-F)-Arg-Trp-Orn)-NH2], the pKi on hMC4-R [1] was 8.52; at MC1-R it was 6.82. Besides, the values for the pEC50 at hMC4-R [2] (setting [3]) and at hMC4-R [2] (setting [4]) were 9.60 and 10.02, respectively. Besides, the figures for the Emax on hMC4-R [2] (setting [3]) and at hMC4-R [2] (setting [4]) were 76% and 92%, respectively.
In the case of `CC(=O)N[C@@H](CCCNC(=N)N)C(=O)N[C@H]1CCCNC(=O)CC[C@@H](C(N)=O)NC(=O)[C@H](Cc2c[nH]c3ccccc23)NC(=O)[C@H](CCCNC(=N)N)NC(=O)[C@@H](Cc2ccccc2F)NC(=O)[C@H](CC(N)=O)NC1=O` [Example 71, Ac-Arg-cyclo(Orn-Asn-D-Phe(2-F)-Arg-Trp-Glu)-NH2], the negative logarithm of the Ki (pKi) was 8.05 at hMC4-R [1] and 6.47 at MC1-R. Moreover, the negative logarithm of the EC50 (pEC50) on hMC4-R [2] (setting [3]) is 9.00; at hMC4-R [2] (setting [4]) it was 10.07. In addition, the Emax at hMC4-R [2] (setting [3]) came to 86%; on hMC4-R [2] (setting [4]) it was 91%.
`CC(=O)N[C@@H](CCCNC(=N)N)C(=O)N[C@H]1CCCNC(=O)CC[C@@H](C(N)=O)NC(=O)[C@H](Cc2c[nH]c3ccccc23)NC(=O)[C@H](CCCNC(=N)N)NC(=O)[C@@H](Cc2ccccc2C)NC(=O)[C@H](CC(N)=O)NC1=O` [Example 74, Ac-Arg-cyclo(Orn-Asn-D-Phe(2-Me)-Arg-Trp-Glu)-NH2]: the pKi is 8.30 at hMC4-R [1] and 6.39 on MC1-R. In addition, the Emax on hMC4-R [2] (setting [3]) amounted to 68%; at hMC4-R [2] (setting [4]), 100%.
`CC(=O)N[C@@H](CCCNC(=N)N)C(=O)N[C@H]1CCCNC(=O)CC[C@@H](C(N)=O)NC(=O)[C@H](Cc2c[nH]c3ccccc23)NC(=O)[C@H](CCCNC(=N)N)NC(=O)[C@@H](Cc2ccc(F)c(F)c2)NC(=O)[C@H](CC(N)=O)NC1=O` [Example 75, Ac-Arg-cyclo(Orn-Asn-D-Phe(3,4-diF)-Arg-Trp-Glu)-NH2]: the pKi at hMC4-R [1] is 8.52; at MC1-R, 6.72. In addition, the negative logarithm of the EC50 (pEC50) on hMC4-R [2] (setting [3]) was 9.19; at hMC4-R [2] (setting [4]), 9.90. Also, the Emax at hMC4-R [2] (setting [3]) was 43%; on hMC4-R [2] (setting [4]), 87%.
For `CC(=O)N[C@@H](CCCNC(=N)N)C(=O)N[C@H]1CCC(=O)NCCC[C@@H](C(N)=O)NC(=O)[C@H](Cc2c[nH]c3ccccc23)NC(=O)[C@H](CCCNC(=N)N)NC(=O)[C@@H](Cc2cc(F)cc(F)c2)NC(=O)[C@H](CC(N)=O)NC1=O` [Example 76, Ac-Arg-cyclo(Glu-Asn-D-Phe(3,4-diF)-Arg-Trp-Orn)-NH2], the pKi at hMC4-R [1] is 7.70; on MC1-R, 6.59. In addition, the negative-log EC50 (pEC50) is 8.52 at hMC4-R [2] (setting [3]) and 9.87 on hMC4-R [2] (setting [4]). Besides, the results for the Emax on hMC4-R [2] (setting [3]) and at hMC4-R [2] (setting [4]) were 53% and 85%, respectively.
Take `CC(=O)N[C@H](CCCNC(=N)N)C(=O)N[C@H]1CC(=O)NCCCC[C@@H](C(N)=O)NC(=O)[C@H](Cc2c[nH]c3ccccc23)NC(=O)[C@H](CCCNC(=N)N)NC(=O)[C@@H](Cc2ccccc2Cl)NC(=O)[C@H](CCC(N)=O)NC1=O` [Example 79, Ac-D-Arg-cyclo(Asp-Gln-D-Phe(2-Cl)-Arg-Trp-Lys)-NH2]: the pKi on hMC4-R [1] is 8.00; at MC1-R, 6.40. The negative logarithm of the EC50 (pEC50) on hMC4-R [2] (setting [3]) is 8.40; at hMC4-R [2] (setting [4]), 9.70. Also, the Emax at hMC4-R [2] (setting [3]) was 48%; on hMC4-R [2] (setting [4]), 85%.
`CC(=O)N[C@H](CCCNC(=N)N)C(=O)N[C@H]1CC(=O)NCCCC[C@@H](C(N)=O)NC(=O)[C@H](Cc2c[nH]c3ccccc23)NC(=O)[C@H](CCCNC(=N)N)NC(=O)[C@@H](Cc2cccc(Cl)c2)NC(=O)[C@H](CCC(N)=O)NC1=O` [Example 80, Ac-D-Arg-cyclo(Asp-Gln-D-Phe(3-Cl)-Arg-Trp-Lys)-NH2]: the negative logarithm of the Ki (pKi) is 8.15 on hMC4-R [1] and 5.76 on MC1-R. In addition, the pEC50 on hMC4-R [2] (setting [3]) was 8.22; at hMC4-R [2] (setting [4]) it was 9.19. The Emax on hMC4-R [2] (setting [3]) turned out to be 13%; at hMC4-R [2] (setting [4]), 86%.
`CC(=O)N[C@@H](CCCNC(=N)N)C(=O)N[C@H]1CCC(=O)NCCC[C@@H](C(N)=O)NC(=O)[C@H](Cc2c[nH]c3ccccc23)NC(=O)[C@H](CCCNC(=N)N)NC(=O)[C@@H](Cc2ccccc2F)NC(=O)[C@H](CC(N)=O)NC1=O` [Example 84, Ac-Arg-cyclo(Glu-Asn-D-Phe(2-Cl)-Arg-Trp-Orn)-NH2]: the figures for the pKi at hMC4-R [1] and on MC1-R were 8.15 and 6.61, respectively. For the same molecule, the Emax on hMC4-R [2] (setting [3]) is 78%; at hMC4-R [2] (setting [4]), 97%. The molecule also showed a pEC50 on hMC4-R [2] (setting [4]) of 10.05.
Regarding `CC(=O)N[C@@H](CCCNC(=N)N)C(=O)N[C@H]1CCC(=O)NCCC[C@@H](C(N)=O)NC(=O)[C@H](Cc2c[nH]c3ccccc23)NC(=O)[C@H](CCCNC(=N)N)NC(=O)[C@@H](Cc2ccccc2C)NC(=O)[C@H](CCC(N)=O)NC1=O` [Example 110, Ac-Arg-cyclo(Glu-Gln-D-Phe(2-Me)-Arg-Trp-Orn)-NH2], the figures for the pKi on hMC4-R [1] and at MC1-R were 8.30 and 6.98, respectively. For the same molecule, the results for the pEC50 on hMC4-R [2] (setting [3]) and on hMC4-R [2] (setting [4]) were 9.22 and 10.22, respectively. In addition, the Emax on hMC4-R [2] (setting [3]) was found to be 84%; at hMC4-R [2] (setting [4]), 105%.
`CC(=O)N[C@@H](CCCNC(=N)N)C(=O)N[C@H]1CCC(=O)NCCC[C@@H](C(N)=O)NC(=O)[C@H](Cc2c[nH]c3ccccc23)NC(=O)[C@H](CCCNC(=N)N)NC(=O)[C@@H](Cc2ccccc2C(F)(F)F)NC(=O)[C@H](CCC(N)=O)NC1=O` [Example 114, Ac-Arg-cyclo(Glu-Gln-D-Phe(2-CF3)-Arg-Trp-Orn)-NH2]: the results for the pKi at hMC4-R [1] and on MC1-R were 8.10 and 7.03, respectively. The negative logarithm of the EC50 (pEC50) at hMC4-R [2] (setting [3]) was 9.00. Also, the Emax came out at 73% at hMC4-R [2] (setting [3]) and 117% at hMC4-R [2] (setting [4]).
For `CC(=O)N[C@@H](CCCNC(=N)N)C(=O)N[C@H]1CCCNC(=O)CC[C@@H](C(N)=O)NC(=O)[C@H](Cc2c[nH]c3ccccc23)NC(=O)[C@H](CCCNC(=N)N)NC(=O)[C@@H](Cc2ccccc2C(F)(F)F)NC(=O)[C@H](CCC(N)=O)NC1=O` [Example 115, Ac-Arg-cyclo(Orn-Gln-D-Phe(2-CF3)-Arg-Trp-Glu)-NH2], the pKi on hMC4-R [1] was 8.40; on MC1-R, 6.63. The figures for the pEC50 on hMC4-R [2] (setting [3]) and at hMC4-R [2] (setting [4]) were 9.10 and 9.77, respectively. Also, the figures for the Emax at hMC4-R [2] (setting [3]) and on hMC4-R [2] (setting [4]) were 54% and 108%, respectively.
